# In patent US11828750B2, “Material for screening for compound acting on ION channel and use thereof” (PUBLIC UNIVERSITY CORPORATION NAGOYA CITY UNIVERSITY, priority 2016, dated 2023):
# How the values were obtained:
# [1] = target: T1, hSK4 (Homo sapiens, UniProt O15554); assay: Cell death assay in SK4 test cells (Kir 2.1+IFM/QQQ+SK4 cells); type: cell-based; conditions: in the presence of 100 nM Ca ion
# T1 construct: expressed in transfected cells; host or cells: HEK293 Kir 2.1 + mutated Nav cells, transient expression via baculovirus vector
# Description: (§1) hSK2 and hSK4, which are each one type of human-derived Ca ion-activated ion channel, were respectively subcloned in a baculovirus vector, which is a viral vector, and were inserted into the Kir 2.1 #mutated Nav cells prepared in Second Embodiment to prepare hSK2 transiently expressing Kir 2.1+IFM/QQQ+SK2 cells (referred to herebelow as SK2 test cells) and hSK4 transiently expressing Kir 2.1+IFM/QQQ+SK4 cells (referred to herebelow as SK4 test cells). Sf-900 III SFM (Thermo Fisher Scientific) was used for the culture medium for baculovirus vector production, and Dulbecco's Modified Eagle Medium (D-MEM) culture medium supplemented with 10% fetal bovine serum (FBS) was used as the culture medium for the test cells.
# [2] = target: T2, hTREK-1 (Homo sapiens, UniProt O95069); assay: Cell death assay (MTT method) in TREK-1 test cells (hTREK-1#Kir 2.1#mutated Nav HEK293 cells); type: cell-based; conditions: 37° C.
# T2 construct: expressed in transfected cells; host or cells: HEK293 cells stably expressing Kir 2.1 and Nav 1.5 IFM/QQQ; hTREK-1 in pcDNA3.1(+)
# T2 sequence (O95069 1-422 isoform O95069-3): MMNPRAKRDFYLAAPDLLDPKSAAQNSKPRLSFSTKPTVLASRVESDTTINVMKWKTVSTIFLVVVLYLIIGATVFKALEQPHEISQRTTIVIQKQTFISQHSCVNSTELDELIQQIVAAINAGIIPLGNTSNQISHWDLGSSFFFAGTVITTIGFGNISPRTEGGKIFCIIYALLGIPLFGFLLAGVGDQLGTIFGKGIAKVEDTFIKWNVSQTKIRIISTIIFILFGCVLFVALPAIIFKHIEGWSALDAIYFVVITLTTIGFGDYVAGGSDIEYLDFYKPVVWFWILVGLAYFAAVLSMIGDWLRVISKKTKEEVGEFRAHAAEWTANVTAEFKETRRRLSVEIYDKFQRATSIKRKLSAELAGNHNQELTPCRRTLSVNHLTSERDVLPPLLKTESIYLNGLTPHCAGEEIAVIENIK
# Method: (Cell Culture and Gene Insertion) Human-derived embryonic kidney cells (HEK293 cells) were purchased from the Health Sciences Research Resource Bank (HSRRB). 10% fetal bovine serum (FBS, Gibco Corp.) was added thereto followed by culturing at 37° C. in 5% CO2 in Dulbecco's Modified Eagle Medium (D-MEM, Wako Pure Chemical Industries, Ltd.) containing 100 U/ml penicillin (Wako Pure Chemical Industries, Ltd.) and 100 μg/ml streptomycin (Meiji Seika Kaisha, Ltd.). pcDNA3.1/Kir 2.1, obtained by subcloning human-derived Kir 2.1 (NM #000891) in pcDNA3.1(+) (Invitrogen Corp.), was inserted using Lipofectamine 2000 (Invitrogen Corp.) followed by culturing in medium obtained by adding 0.2 mg/ml Zeocin (Invitrogen Corp.) to the above-mentioned D-MEM medium and then cloning Zeocin resistant cells to prepare Kir 2.1 constantly expressing cells (HEK#Kir). In addition, the deactivation mutant Nav 1.5 IFM/QQQ was inserted into the Kir 2.1 constantly expressing cells using the same method (HEK#Kir#mutated Nav).
# Proceeding as above, hTREK-1#Kir 2.1 #mutated Nay cells (referred to herebelow as TREK-1 test cells) were prepared by subcloning hTREK-1 (GenBank Accession Number: NM #001017424), a type of human-derived K2P channel, in pcDNA3.1(+) and inserting it in the previously prepared Kir 2.1 #mutated Nav cells. […]
# [3] = target: T3, hSK2 (Homo sapiens, UniProt Q9H2S1); assay: Cell death assay in SK2 test cells (Kir 2.1+IFM/QQQ+SK2 cells); type: cell-based
# T3 construct: expressed in transfected cells; host or cells: HEK293 Kir 2.1 + mutated Nav cells, transient expression via baculovirus vector
# Description: as §1
# [4] = target: T4, hTASK-3 (Homo sapiens, UniProt Q9NPC2); assay: Cell death assay in TASK-3 test cells (hTASK-3 transiently expressing Kir 2.1#mutated Nav cells); type: cell-based; conditions: 200 μM Ba ion
# T4 construct: expressed in transfected cells; host or cells: HEK293 Kir 2.1 + mutated Nav cells, transient expression via baculovirus vector
# T4 sequence (Q9NPC2 whole entry): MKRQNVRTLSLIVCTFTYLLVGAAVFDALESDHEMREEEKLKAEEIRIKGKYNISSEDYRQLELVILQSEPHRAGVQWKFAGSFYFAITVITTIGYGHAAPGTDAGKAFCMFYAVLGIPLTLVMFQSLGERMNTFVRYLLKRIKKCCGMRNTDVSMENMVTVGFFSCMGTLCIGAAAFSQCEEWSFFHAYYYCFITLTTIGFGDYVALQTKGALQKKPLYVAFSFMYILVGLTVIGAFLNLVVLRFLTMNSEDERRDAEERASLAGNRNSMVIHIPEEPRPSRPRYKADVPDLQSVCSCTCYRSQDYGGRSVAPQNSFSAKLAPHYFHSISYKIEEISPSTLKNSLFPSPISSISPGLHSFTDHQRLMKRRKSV
# Description: Sf-900 III SFM (Thermo Fisher Scientific) was used for the culture medium for baculovirus vector production, and Dulbecco's Modified Eagle Medium (D-MEM) culture medium supplemented with 10% fetal bovine serum (FBS) was used as the culture medium for the test cells.
# [5] = system: hTASK-1; assay: Cell death assay in TASK-1 test cells (hTASK-1 transiently expressing Kir 2.1#mutated Nav cells); type: cell-based, human
# Method: With the TREK-1 test cells, the culture medium was replaced with measurement buffer (137 mM NaCl, 5.9 mM KCl, 2.2 mM CaCl2, 1.2 mM MgCl2, 14 mM glucose, 10 mM HEPES (pH 7.4 with NaOH), this also applies in the following) and BaCl2 was added to provide 200 μM Ba ion, a Kir 2.1 inhibitor. This was followed by incubation for approximately 12 hours under conditions of 37° C., atmospheric pressure, and 5% CO2 and monitoring of cell death. […] The measurement of cell death was carried out using the MTT method with reference to a paper by the present inventors (Yamazaki, D., et al., Am J Physiol Cell Physiol 300, C75-86, 2011).
# hTASK-1 (the Δi20 mutant was used due to poor transfer to the cell membrane by the wild type, resulting in the problems of a small current and measurement difficulties. This mutant is reported to readily transfer to the membrane. Renigunta et al., Traffic 7:168-181, 2006) and hTASK-3 (GenBank Accession Number: NM #001282534), which are types of human-derived K2P channels, were subcloned in a baculovirus vector, a viral vector, and were inserted into the Kir 2.1 #mutated Nav cells prepared in Second Embodiment to prepare hTASK-1 transiently expressing TASK-1#Kir 2.1 #mutated Nav cells and hTASK-3 transiently expressing hTASK-3#Kir 2.1 #mutated Nav cells (referred to herebelow as TASK-1 test cells and TASK-3 test cells), respectively, which transiently expressed hTASK-1 and hTASK-3. Sf-900 III SFM (Thermo Fisher Scientific) was used for the culture medium for baculovirus vector production, and Dulbecco's Modified Eagle Medium (D-MEM) culture medium supplemented with 10% fetal bovine serum (FBS) was used as the culture medium for the test cells.
# For TASK-3 this was the same as the literature value of 35 nM (Coburn et al., Chem Med Chem., 7(1), 123-33, 2012).
# [6] = target: TASK-1 (Homo sapiens, UniProt O14649); conditions: Zou et al. 2010; read-out: reported IC50 for TASK-1; cited from earlier work
# Sequence of TASK-1 (O14649 whole entry, species assumed): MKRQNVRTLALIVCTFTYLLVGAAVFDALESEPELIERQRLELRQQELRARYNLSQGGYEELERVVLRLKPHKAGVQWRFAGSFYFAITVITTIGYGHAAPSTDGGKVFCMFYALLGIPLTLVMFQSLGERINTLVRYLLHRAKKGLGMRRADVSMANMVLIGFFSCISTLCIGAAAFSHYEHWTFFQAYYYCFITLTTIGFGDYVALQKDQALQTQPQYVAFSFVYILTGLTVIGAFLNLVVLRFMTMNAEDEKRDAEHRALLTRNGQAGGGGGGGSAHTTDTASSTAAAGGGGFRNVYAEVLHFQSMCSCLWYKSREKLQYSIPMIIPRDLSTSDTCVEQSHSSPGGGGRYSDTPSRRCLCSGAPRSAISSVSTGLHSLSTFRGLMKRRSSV
compound,measurement,setting,value
"CCn1c(=O)[nH]c2cc(Cl)c(Cl)cc21 [DCEBIO, 5,6-dichloro-1-ethyl-1,3-dihydro-2H-benzimidazole-2-one]",cell death of SK4 test cells on addition of activator,[1],cell death of the SK4 test cells was inhibited
Nc1ncnc2c1nc(Br)n2[C@@H]1O[C@@H]2COP(=O)(O)O[C@H]2[C@H]1O [8-Br-cAMP],cell death on supply of TREK-1 inhibitor,"[2]; in the presence of 200 μM Ba ion, approximately 12 hours, MTT method",Cell death was observed
"O=C1Nc2c(ccc(Cl)c2Cl)C1=NO [NS309, 3-oxime-6,7-dichloro-1H-indole-2,3-dione]",cell death of SK2 test cells on addition of activator,[3]; in the presence of 100 nM Ca ion,cell death of the SK2 test cells was inhibited
"[Ba+2].[Cl-].[Cl-] [Ba ion, BaCl2]",cell death with Ba ion alone,[4],cell death was not produced
same,cell death with Ba ion alone,[5]; 200 μM Ba ion,cell death was not produced
same,cell death with Ba ion alone,"[2]; 200 μM Ba ion, TREK-1 test cells",cell death was not produced
ML365,IC50,[6],12 nM
same,induction of cell death by inhibitor,[5]; in the presence of 200 μM Ba ion,cell death was observed in a concentration-dependent regime
same,concentration above which a sharp increase in the induction of cell death occurred,[5]; in the presence of Ba ion,> 11.5 nM
c1cc2cc(c1)C[n+]1ccc(c3ccccc31)NCc1ccc(cc1)CNc1cc[n+](c3ccccc13)C2 [UCL1684],effect of inhibitor on NS309-mediated inhibition of cell death,"[3]; added together with NS309, 100 nM Ca ion",the NS309-mediated inhibition of cell death was extinguished
